IC50 data for 8 compounds are collected here from US11136311B2, “Heteroaromatic derivatives as NIK inhibitors” (Janssen Pharmaceutica NV, priority 2016, dated 2021).

Where two headings read alike, the source gives them in different places. Some results are limits rather than exact numbers.

For one assay, the system named is KMS12-BM cells. Put plainly: Antiproliferative activity on KMS12-BM (NIK WT) multiple myeloma cells (CellTiter-Glo). The format is cell-based, human. The conditions noted are these: KMS12-BM (NIK WT) cells, 96 hr, averaged values, read-out: KMS-12 Proliferation inhibition (IC50 (nM)). Put shortly:
(§1)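 Viability was read by CellTiter-Glo after 96 hr compound exposure (9-point, 1:3 serial dilutions; 0.3% DMSO final). JJN-3 and KMS12-BM cells were seeded at 15000 and 20000 per well respectively in RPMI 1640/10% FCS; blank-subtracted signals were given as percent of drug-free controls.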

The target in assay [1] is recombinant human NF-kappaB-inducing kinase (NIK/MAP3K14) (Homo sapiens (Human), UniProt Q99558). The assay can be described thus: Inhibition of auto-phosphorylation of recombinant human NIK/MAP3K14 activity (AlphaScreen). The format is biochemical. To be noted: averaged values over all measurements on all batches. The essentials: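 AlphaScreen read-out, using anti-phospho-IKK Ser176/180 antibody, tracked NIK autophosphorylation after 1 h at 25° C. Reactions held 0.2 nM GST-NIK, 25 microM ATP and compound in 1% DMSO, Tris pH 7.5 buffer. IC50 fitted sigmoidally to blank-subtracted inhibition data.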

The test system of assay [2] is P-IKKα levels in L363 cells. The assay can be described thus: Effect of compounds on P-IKKα levels in L363 (NIK translocated multiple myeloma) cells. The format is cell-based, human. The conditions noted are these: averaged values, read-out: Inhibition of pIKKα_L-363 (IC50 (nM)). Put shortly: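 L363 myeloma cells were primed 24 h with BAFF, then treated 2 h with compound (8-point, 1:3 dilutions, 1% DMSO) at 37°C. P-IKKα in lysates was measured by Mesoscale sandwich immunoassay, with the full-inhibition blank subtracted. IC50 came from a sigmoidal fit of % inhibition of control against log concentration.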

A further assay concerns JJN-3 cells. Put plainly: Antiproliferative activity on JJN-3 (NIK translocated) multiple myeloma cells (CellTiter-Glo). The format is cell-based, human. To be noted: JJN-3 (NIK translocated) cells, 96 hr, averaged values, read-out: JJN-3 Proliferation inhibition (IC50 (nM)). Put shortly: as §1
Where [3] appears, read: Homo sapiens, L-363, L363 cells.

Chain of recombinant human NF-kappaB-inducing kinase (NIK/MAP3K14) (Q99558 whole entry): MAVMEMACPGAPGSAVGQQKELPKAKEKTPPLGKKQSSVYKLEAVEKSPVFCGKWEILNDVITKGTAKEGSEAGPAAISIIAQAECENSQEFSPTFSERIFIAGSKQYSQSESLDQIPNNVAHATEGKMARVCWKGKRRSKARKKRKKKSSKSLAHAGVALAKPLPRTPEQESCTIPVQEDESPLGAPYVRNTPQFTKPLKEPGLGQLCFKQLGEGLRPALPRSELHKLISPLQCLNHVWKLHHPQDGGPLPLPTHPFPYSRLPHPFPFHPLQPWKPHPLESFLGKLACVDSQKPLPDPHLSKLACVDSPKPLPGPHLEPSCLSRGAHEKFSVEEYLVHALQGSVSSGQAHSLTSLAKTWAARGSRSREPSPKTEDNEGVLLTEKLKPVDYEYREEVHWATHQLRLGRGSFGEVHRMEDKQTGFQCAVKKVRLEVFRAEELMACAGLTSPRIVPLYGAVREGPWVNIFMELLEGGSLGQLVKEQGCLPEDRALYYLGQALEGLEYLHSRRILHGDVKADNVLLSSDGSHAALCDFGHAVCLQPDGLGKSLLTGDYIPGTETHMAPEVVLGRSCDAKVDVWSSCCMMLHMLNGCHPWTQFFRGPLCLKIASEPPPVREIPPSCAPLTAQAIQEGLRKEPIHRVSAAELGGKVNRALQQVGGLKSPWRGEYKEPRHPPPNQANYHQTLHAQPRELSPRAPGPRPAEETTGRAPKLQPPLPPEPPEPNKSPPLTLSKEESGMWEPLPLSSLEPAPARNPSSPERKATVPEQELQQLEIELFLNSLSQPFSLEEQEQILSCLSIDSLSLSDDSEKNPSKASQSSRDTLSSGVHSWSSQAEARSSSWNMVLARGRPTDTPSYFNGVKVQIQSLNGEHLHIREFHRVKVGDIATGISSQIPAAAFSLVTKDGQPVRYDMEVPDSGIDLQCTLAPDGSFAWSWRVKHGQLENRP

In the case of `COCCn1nc(CO)cc1Nc1nccc(-c2cc(C#N)c3c(c2)[C@@](C)(CO)CN3)n1` [Compound 153], the IC50 in the assay on KMS12-BM cells (Homo sapiens, KMS-12-BM, 96 h) was more than 10000 nM; in assay [1], 4.3 nM; in assay [2] (setting [3]) it was 28 nM; in the assay with JJN-3 cells (Homo sapiens, JJN-3, 96 h) it was 1440 nM.
The like results for `C=CCn1nc(C)cc1Nc1nccc(-c2cc(C#N)c3c(c2)[C@@](C)(CO)CN3)n1` [Compound 73] were, in that order, 1320 nM, 1.9 nM, 2 nM and 195 nM.
As for `Cc1cc(Nc2nccc(-c3cc(C#N)c4c(c3)[C@@](C)(CO)CN4)n2)nn1CC1CCCCO1` (some centres unmarked) [Compound 71], the IC50 was determined as 813 nM in the assay with KMS12-BM cells, 2.8 nM in assay [1], 4 nM in assay [2] (L363 cells) and 102 nM with JJN-3 cells.
`Cn1cc(Nc2nccc(-c3cc(C#N)c4c(c3)[C@@](C)(CO)CN4)n2)c(CN2CCOCC2)n1` [Compound 150]: the IC50 with KMS12-BM cells (Homo sapiens, KMS-12-BM, 96 h) was more than 10000 nM; in assay [1] it was 15 nM; in assay [2] (setting [3]), 170 nM; in the assay on JJN-3 cells (Homo sapiens, JJN-3, 96 h) it was 2400 nM.
The like results for `CC(C)CCc1c(Nc2nccc(-c3cc(C#N)c4c(c3)[C@@](C)(CO)CN4)n2)cnn1CC1CCN(CC(F)(F)F)CC1` [Compound 163] were, in that order, more than 10000 nM, 12 nM, 5 nM and 309 nM.
In the same order, the values of `Cc1cc(Nc2nccc(-c3cc(C#N)c4c(c3)[C@@](C)(CO)CN4)n2)n(CCN2CCOCC2)n1` [Compound 165] are more than 10000 nM, 8.5 nM, 48 nM and 1620 nM.
With `Cc1cc(Nc2nccc(-c3cc(C#N)c4c(c3)[C@@](C)(CO)CN4)n2)nn1CC1CCCCO1` (some centres unmarked) [Compound 70], the IC50 came out at 1860 nM in the assay on KMS12-BM cells, 3.8 nM in assay [1], 6 nM in assay [2] (setting [3]) and 209 nM with JJN-3 cells.
As for `CNC(=O)c1cc(Nc2nccc(-c3cc(C#N)c4c(c3)[C@@](C)(CO)CN4)n2)nn1C(C)C` [Compound 103], the IC50 with KMS12-BM cells (Homo sapiens, KMS-12-BM, 96 h) was found to be 3020 nM; in assay [1] it was 2.6 nM; in assay [2] (setting [3]) it was 4 nM; with JJN-3 cells (Homo sapiens, JJN-3, 96 h), 71 nM.
